Test results taken from patent US20120077813A1, “Imidazole Substituted Pyrimidines Useful in the Treatment of Glycogen Synthase Kinase-3 Related Disorders such as Alzheimer's Disease” (ASTRAZENECA AB, priority 2009, published 2012).
Structures can show the parent of a compound that is named as a salt.

How the values were obtained:
[1] = CaCo-2 permeability assay Alt 1 (pH gradient 6.5/7.4); type: in vitro ADME; settings: human, Alt 1: apical to basolateral, pH 6.5 apically, pH 7.4 basolaterally, typically 10 μM, mean value
Method: (§1) CaCo-2 Cell Permeability Assay
(§2) CaCo-2 cells were seeded onto filter membrane at a density of 340500 cells/cm2 for 24 well plates (0.33 cm2/well). The cells were grown in culture medium consisting of Dulbecco's modified Eagle's medium with glucose and L-glutamine supplemented with 10% fetal bovine serum, 100 U/ml penicillin-G, and 100 μg/ml streptomycin and 1% (v/v) 100X non-essential amino acids. The culture medium was replaced every second day and the cells were maintained at 37° C., 95% relative humidity, and 5% CO2. Permeability studies were conducted with the monolayers cultured for 21-28 days with the cell passage numbers between 25 and 50.
Alt 1. the CaCo-2 Permeability Assay Used in Examples 3, 5, 6 and Reference Example.
The CaCo-2 permeabilty assay were performed in the apical to basolateral directions under gradient pH-gradient conditions (pH 6.5 apically, pH 7.4 basolaterally). HBSS containing 25 mM HEPES (pH 7.4) and 25 mM MES (pH 6.5) was used as transport medium. Fully differentiated cell monolayers were washed with transport medium. The drug solutions, typically 10 μM, were prepared in transport medium, pH 6.5 (1% DMSO). The permeability experiment was started by adding 0.2 ml drug solutions on the apical side. The basolateral side contained 0.8 ml of transport medium, pH 7.4. Three inserts with cells and one without were assayed for each drug. Cells were kept in an incubator at 37° C. and shaking. 200 μl samples were taken at 45 and 90 min from the basolateral side. The same volume of transport buffer was added to the basolateral compartments after the first sampling. Compound recovery was assessed by calculating the sum of the cumulatively transported amount and the amount left in the donor side against the initial amount of drug. The samples were analysed online using liquid chromatography tandem mass spectrometry (LC/MS/MS). […] The samples of 25 μl were analysed by liquid scintillation.
(§3) The apparent permeability coefficient is calculated as follows: […]

recombinant human GSK3β = molecular target: T1, recombinant human GSK3β (Homo sapiens, UniProt P49841); assay: ATP competition in scintillation proximity GSK3β assay; type: biochemical; settings: for Ki: mean value, Ki calculated with Km of ATP 20 μM; for Selectivity GSK3β vs CDK2: ratio of CDK2 Ki to GSK3β Ki
T1 construct: purchased Dundee University, UK
T1 sequence (P49841 whole entry): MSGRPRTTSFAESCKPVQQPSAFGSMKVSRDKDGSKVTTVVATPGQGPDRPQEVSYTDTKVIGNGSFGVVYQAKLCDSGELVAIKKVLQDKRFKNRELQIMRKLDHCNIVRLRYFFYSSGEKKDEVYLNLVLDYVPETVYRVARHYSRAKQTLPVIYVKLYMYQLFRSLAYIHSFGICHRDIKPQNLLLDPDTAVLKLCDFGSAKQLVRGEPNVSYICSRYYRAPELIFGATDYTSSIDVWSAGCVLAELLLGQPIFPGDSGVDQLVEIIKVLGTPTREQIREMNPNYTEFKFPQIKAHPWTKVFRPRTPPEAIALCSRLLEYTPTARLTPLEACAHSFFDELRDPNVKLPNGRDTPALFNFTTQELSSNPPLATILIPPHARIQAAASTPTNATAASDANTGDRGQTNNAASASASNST
Method: Determination of ATP Competition in Scintillation Proximity GSK3β Assay.
The inhibition experiments were carried out in duplicate with 10 concentrations of the inhibitor in 384 well clear-bottom microtitre plates. A biotinylated peptide substrate (Biotin-Ala-Ala-Glu-Glu-Leu-Asp-Ser-Arg-Ala-Gly-Ser(PO3H2)-Pro-Gln-Leu (AstraZeneca, Lund)), was added at a final concentration of 1 mmol/L in an assay buffer (pH 7.0) containing 0.1 mU recombinant human GSK3β (Dundee University, UK), (1 nmol/L active enzyme), 10 mmol/L morpholinepropanesulfonic acid (MOPS), 0.3 mmol/L EDTA, 0.01% (v/v) β-mercaptoethanol, 0.003% (w/v) polyethylene 23 lauryl ether (Brij 35), 0.4% glycerol and 0.02 mg bovine serum albumine (BSA) and preincubated for 10 minutes. The reaction was initiated by the addition of 0.06 mCi [γ-33P]ATP (Amersham, UK) and unlabelled ATP in 30 mmol/L Mg(Ac)2 to a final concentration of […] ATP. The final assay volume was […]. Blank controls without peptide substrate were used. After incubation for 15 min at room temperature, the reaction was terminated by the addition of stop solution containing 1.3 mmol/L EDTA, 13 mmol/L ATP, 0.02% Triton™X-100 and 0.15 mg streptavidin coated SPA beads. After a 5 minutes centrifugation at 2000 rpm, the radioactivity was measured in a liquid scintillation counter (1450 MicroBeta Trilux, Perkin Elmer, Finland). The Km value of ATP for GSK3β, used to calculate the inhibition constants (Ki) of the various compounds, was 20 μM.

Cdk2/cyclin E = Cdk2/cyclin E (Homo sapiens, UniProt P24941); assay: ATP competition in scintillation proximity Cdk2 assay; type: biochemical; settings: mean value; Ki calculated with Km of ATP 0.5 μM
Method: Determination of ATP Competition in Scintillation Proximity Cdk2 Assay.
The competiton experiments were carried out in duplicate with 10 concentrations of the inhibitor in 96 well clear-bottom microtiter plates. Cdk2/cyclin E enzyme was added at a concentration corresponding to a 80 times dilution of the partially purified bacluloviral infected insect cell lysate in a buffer containing 50 mmol/L HEPES, 10 mmol/L MnCl2, 1 mmol/L dithiothreitol (DTT), 100 μmol/L NaF, 100 μmol/L sodium vanadate, 10 mmol/L sodium glycerophosphate, 5 μg/mL aprotinin, 2.5 μg/mL leupeptin and 100 μmol/L PMSF, pH 7.5. Blank controls without enzyme were used. The reaction was initiated by the addition of 1.25 μg GST-Rb, 0.15 μCi [γ-33P]ATP and unlabelled ATP at a final concentration of 0.1 μmol/L. The final assay volume was 50 μL. After incubation for 60 min at room temperature, each reaction was terminated by the addition of 150 μL stop solution containing 45 μL protein A coated SPA beads in 50 mmol/L HEPES, 3.28 mg antiglutathione-S-transferase, and 5.5 mmol/L EDTA and 35 μmol/L ATP. The plate was centrifuged at 2000 rpm for 5 min and the radioactivity was determined in a liquid scintillation counter (1450 MicroBeta Trilux, Perkin Elmer, Finland). The Km value of ATP for Cdk2 used to calculate the inhibition constants (Ki) of the various compounds, was 0.5 μM

[2] = CaCo-2 A to B permeability assay Alt 2 (pH 7.4); type: in vitro ADME; settings: human, Alt 2: apical to basolateral, pH 7.4, 10 μM, mean value
Method: as §1, §2
Alt 2. the CaCo-2 A to B Permeability Assay Used in Examples 2-4, 7-8.
The CaCo-2 A to B assay was performed in the apical to basolateral direction (each in duplicates) at pH 7.4. HBSS containing 25 mM HEPES (pH 7.4) was used as transport medium. The drug solutions, typically 10 μM, were prepared in transport medium (1% DMSO). Studies of six compounds can be performed in one 24 well plate that generates one 96 deepwell analysis plate (maximum capacity 6 plates=36 compounds and 6 deep well plates). The CaCo-2 cell monolayers were washed once with HBSS for 10 minutes prior to start. Transport buffer, 800 μL, (HBSS, pH 7.4) is first dispensed to the basal side of the monolayer. The assay is then initiated by addition of 225 μL of each compound (10 μM) to the apical side. Samples are withdrawn directly (Donor 0) and at 60 min (Donor end and Receiver 60) post addition of test compound. 25 μL and 150 μL are withdrawn from the donor compartment and the receiver compartment, respectively. During washing-step and incubation with compounds the transwell plates are placed in a shaking incubator at 480 rpm and 37° C. The integrity of the epithelial cell monolayer is monitored by measuring the amount of radiolabelled [^14C]mannitol (low passive paracellular diffusion) in the donor compartment at time 0 min to 60 min. Luma Plate 96-well is used for analysis of [14C]mannitol. Compound recovery was assessed by calculating the sum of the cumulatively transported amount and the amount left in the donor side against the initial amount of drug. The samples were analysed online using liquid chromatography tandem mass spectrometry (LC/MS/MS).
as §3
where ΔQ/Δt is the total amount of substance transported into the receiver chamber per unit time, A is the surface area (cm^2), and C0 the starting donor concentration. The apparent permeability Papp is expressed in ×10-6 cm/sec.

SMILES | melting point | Ki (recombinant human GSK3β) | Selectivity GSK3β vs CDK2 (recombinant human GSK3β) | Ki (Cdk2/cyclin E) | Selectivity GSK3β vs CDK2 (recombinant human GSK3β; hydrochloride) | Papp A→B at 90 min, 10 µM [1] | Papp A→B at 60 min, 10 µM [2]
Cc1ncc(-c2nc(Nc3cc(F)c(CN4CCOCC4)cc3F)ncc2F)n1C1CCOCC1 (as salt: succinate) [Ex 5, N-(2,5-Difluoro-4-(morpholinomethyl)phenyl)-5-fluoro-4-(2-methyl-1-(tetrahydro-2H-pyran-4-yl)-1H-imidazol-5-yl)pyrimidin-2-amine] | 177 °C |  |  |  |  |  | 
Cc1ncc(-c2nc(Nc3ccc(CN4CCOCC4)cc3F)ncc2F)n1C1CCOCC1 [Ex 1, 5-Fluoro-N-(2-fluoro-4-(morpholinomethyl)phenyl)-4-(2-methyl-1-(tetrahydro-2H-pyran-4-yl)-1H-imidazol-5-yl)pyrimidin-2-amine] |  | 15 nM | 20 | 308 nM |  | 36 ×10⁻⁶ cm/s | 
Cc1ncc(-c2nc(Nc3ccc(CN4CCOC[C@@H]4C)cc3F)ncc2F)n1C1CCOCC1 [Ex 3, 5-Fluoro-N-(2-fluoro-4-(((S)-3-methylmorpholino)methyl)phenyl)-4-(2-methyl-1-(tetrahydro-2H-pyran-4-yl)-1H-imidazol-5-yl)pyrimidin-2-amine hydrochloride] |  | 30 nM | 31 | 940 nM |  |  | 56 ×10⁻⁶ cm/s
Cc1ncc(-c2nc(Nc3ccc(CN4[C@@H](C)COC[C@@H]4C)cc3F)ncc2F)n1C1CCOCC1 [Ex 4, N-(4-(((3S,5S)-3,5-Dimethylmorpholino)methyl)-2-fluorophenyl)-5-fluoro-4-(2-methyl-1-(tetrahydro-2H-pyran-4-yl)-1H-imidazol-5-yl)pyrimidin-2-amine hydrochloride] |  | 11 nM | 29 | 318 nM |  |  | 44 ×10⁻⁶ cm/s
Cc1ncc(-c2nc(Nc3cc(F)c(CN4CCOC[C@@H]4C)cc3F)ncc2F)n1C1CCOCC1 [Ex 7, N-(2,5-Difluoro-4-(((S)-3-methylmorpholino)methyl)phenyl)-5-fluoro-4-(2-methyl-1-(tetrahydro-2H-pyran-4-yl)-1H-imidazol-5-yl)pyrimidin-2-amine] |  | 11 nM | 16 | 175 nM |  |  | 44 ×10⁻⁶ cm/s
Cc1ncc(-c2nc(Nc3ccc(CN4CCOCC4)cc3)ncc2F)n1C1CCOCC1 [Reference example, 5-fluoro-4-(2-methyl-1-(tetrahydro-2H-pyran-4-yl)-1H-imidazol-5-yl)-N-(4-(morpholinomethyl)phenyl)pyrimidin-2-amine, reference compound] |  | 8.1 nM | 14 | 110 nM |  | 26 ×10⁻⁶ cm/s | 

More lines, in order of falling Ki (recombinant human GSK3β), values ahead:

melting point | Ki (recombinant human GSK3β) | Selectivity GSK3β vs CDK2 (recombinant human GSK3β) | Ki (Cdk2/cyclin E) | Selectivity GSK3β vs CDK2 (recombinant human GSK3β; hydrochloride) | SMILES | Papp A→B at 90 min, 10 µM [1] | Papp A→B at 60 min, 10 µM [2]
 | 7.7 nM | 29 | 222 nM |  | Cc1ncc(-c2nc(Nc3cc(F)c(CN4[C@@H](C)COC[C@@H]4C)cc3F)ncc2F)n1C1CCOCC1 [Ex 8, N-(4-(((3S,5S)-3,5-Dimethylmorpholino)methyl)-2,5-difluorophenyl)-5-fluoro-4-(2-methyl-1-(tetrahydro-2H-pyran-4-yl)-1H-imidazol-5-yl)pyrimidin-2-amine] |  | 40 ×10⁻⁶ cm/s
 | 5 nM | 58 | 290 nM |  | Cc1ncc(-c2nc(Nc3ccc(CN4CCOC[C@H]4C)cc3F)ncc2F)n1C1CCOCC1 [Ex 2, 5-Fluoro-N-(2-fluoro-4-(((R)-3-methylmorpholino)methyl)phenyl)-4-(2-methyl-1-(tetrahydro-2H-pyran-4-yl)-1H-imidazol-5-yl)pyrimidin-2-amine hydrochloride] |  | 39 ×10⁻⁶ cm/s
 | 4.9 nM | 26 | 127 nM |  | Cc1ncc(-c2nc(Nc3cc(F)c(CN4CCOCC4)cc3F)ncc2F)n1C1CCOCC1 [Ex 5, N-(2,5-Difluoro-4-(morpholinomethyl)phenyl)-5-fluoro-4-(2-methyl-1-(tetrahydro-2H-pyran-4-yl)-1H-imidazol-5-yl)pyrimidin-2-amine] | 45 ×10⁻⁶ cm/s | 
 | 4.9 nM |  | 133 nM | 27 | Cc1ncc(-c2nc(Nc3cc(F)c(CN4CCOCC4)cc3F)ncc2F)n1C1CCOCC1 [Ex 6, N-(2,5-Difluoro-4-(morpholinomethyl)phenyl)-5-fluoro-4-(2-methyl-1-(tetrahydro-2H-pyran-4-yl)-1H-imidazol-5-yl)pyrimidin-2-amine hydrochloride] |  | 
